Values quoted from earlier work as cited in patent US8007820B2, “Wide spectrum insecticide and miticide composition” (W. Neudorff GmbH KG, priority 2005, dated 2011).

Conditions: as formulated material

- shelf life: about three
Substance: Spinosad
